This note sets out measurements from ChEMBL document CHEMBL5244230, “Artemisinin-derived hybrids and their anticancer activity” (Eur J Med Chem, 2020).

The structures appear in SMILES notation.

The subject of experiment [1] is HCT-116. Kind of experiment: Antiproliferative activity against human HCT-116 cells. Type of experiment: functional, cell-based.
A further experiment deals with PC-3. Kind of experiment: Antiproliferative activity against human PC-3 cells. Type of experiment: functional, cell-based.
For experiment [2], the system named is HCT-116. The experiment in a line: Antiproliferative activity against human HCT-116 cells assessed as reduction in cell viability. Type of experiment: functional, cell-based. Conditions: Homo sapiens, HCT-116.
Experiment [3] deals with MDA-MB-231. Kind of experiment: Antiproliferative activity against human MDA-MB-231 cells assessed as reduction in cell viability. Type of experiment: functional, cell-based.
The next experiment deals with HT-29. Kind of experiment: Antiproliferative activity against human HT-29 cells assessed as reduction in cell viability. Type of experiment: functional, cell-based.
Another experiment concerns DLD-1. Kind of experiment: Cytotoxicity against human DLD-1 cells assessed as cell growth inhibition measured after 48 hrs by MTT assay. It is filed as functional. Background: Formazan colour is commonly taken as a measure of viable cells.
Experiment [4] can be described thus: Cytotoxicity against human U87 cells assessed as cell growth inhibition measured after 48 hrs by MTT assay. It is filed as functional, U-87MG ATCC. Particulars: U-87 MG.
A further experiment relates to HeLa. The experiment in a line: Cytotoxicity against human HeLa cells assessed as cell growth inhibition measured after 48 hrs by MTT assay. Type of experiment: functional.
For a further experiment, the system named is SiHa. The experiment in a line: Cytotoxicity against human SiHa cells assessed as cell growth inhibition measured after 48 hrs by MTT assay. It is filed as functional.
A further experiment relates to A 172. Kind of experiment: Cytotoxicity against human A-172 cells assessed as cell growth inhibition measured after 48 hrs by MTT assay. It is filed as functional.
A further experiment relates to B16. The experiment in a line: Cytotoxicity against mouse B16 cells assessed as cell growth inhibition measured after 48 hrs by MTT assay. It is filed as functional.
The next experiment deals with MCF7. The experiment in a line: Anticancer activity against human MCF7 cells. Type of experiment: functional, cell-based.
A further experiment has as its system A549. Kind of experiment: Antiproliferative activity against human A549 cells. Type of experiment: functional, cell-based.
Experiment [5] relates to MDA-MB-231. Kind of experiment: Antiproliferative activity against human MDA-MB-231 cells. It is filed as functional, cell-based. Conditions: Homo sapiens, MDA-MB-231.
A short description of experiment [6]: Antiproliferative activity against human U-87 MG cells. Type of experiment: functional, cell-based, U-87MG ATCC.

As a reminder, the IC50 is the concentration that inhibits the measured activity by half. For `C[C@H]1[C@@H](OC(=O)CCC(=O)O)O[C@@H]2O[C@@]3(C)CC[C@H]4[C@H](C)CC[C@@H]1[C@@]24OO3`, the IC50 with HCT-116 [1] and in the experiment on PC-3 was 5300 nM throughout.

For `CC1=C(CCOC(=O)CCC(=O)O[C@@H]2O[C@@H]3O[C@@]4(C)CC[C@H]5[C@H](C)CC[C@@H]([C@H]2C)[C@@]35OO4)C(=O)C(C(C)C)=CC1=O`, the IC50 in the experiment with HCT-116 [1] and in the experiment on PC-3 was 2400 nM each time.

For the molecule `Cc1c(Cl)c(=O)oc2cc(OCCn3cc(CO[C@H]4O[C@@H]5O[C@@]6(C)CC[C@H]7[C@H](C)CC[C@@H]([C@H]4C)[C@@]57OO6)nn3)ccc12`, the IC50 in the experiment on HCT-116 [2], with MDA-MB-231 [3] and in the experiment with HT-29 was 430 nM each time.

Consider `CC1=C(CCCCOC(=O)C[C@H]2O[C@@H]3O[C@@]4(C)CC[C@H]5[C@H](C)CC[C@@H]([C@H]2C)[C@@]35OO4)C(=O)C(C(C)C)=CC1=O`, for which the IC50 in the experiment on HCT-116 [1] and in the experiment on PC-3 was greater than 100000 nM each time.

As for `CC1=C(CCCOC(=O)CCC(=O)O[C@@H]2O[C@@H]3O[C@@]4(C)CC[C@H]5[C@H](C)CC[C@@H]([C@H]2C)[C@@]35OO4)C(=O)C(C(C)C)=CC1=O`, the IC50 with HCT-116 [1] and in the experiment with PC-3 was greater than 100000 nM throughout.

As to `CC1=C(CCCOC(=O)C[C@H]2O[C@@H]3O[C@@]4(C)CC[C@H]5[C@H](C)CC[C@@H]([C@H]2C)[C@@]35OO4)C(=O)C(C(C)C)=CC1=O`, the IC50 in the experiment with HCT-116 [1] and with PC-3 was greater than 100000 nM throughout.

For `CC1=C(CCCO[C@H]2O[C@@H]3O[C@@]4(C)CC[C@H]5[C@H](C)CC[C@@H]([C@H]2C)[C@@]35OO4)C(=O)C(C(C)C)=CC1=O`, the concentration for half-maximal inhibition (IC50) with HCT-116 [1] and with PC-3 was greater than 100000 nM each time.

On to `CC1=C(CCCCOC(=O)CCC(=O)O[C@@H]2O[C@@H]3O[C@@]4(C)CC[C@H]5[C@H](C)CC[C@@H]([C@H]2C)[C@@]35OO4)C(=O)C(C(C)C)=CC1=O`, for which the IC50 in the experiment with HCT-116 [1] and with PC-3 was greater than 100000 nM throughout.

One may read the GI50 as the concentration at which growth is held to half of that of the control. For the molecule `C[C@H]1[C@@H](n2cc(-c3ccccc3)nn2)O[C@@H]2O[C@@]3(C)CC[C@H]4[C@H](C)CC[C@@H]1[C@@]24OO3`, the GI50 (with DLD-1; in experiment [4]; with HeLa; in the experiment on SiHa; in the experiment with A 172; in the experiment on B16) was 130 nM in each case.

For `C[C@H]1[C@H](n2nncc2-c2ccccc2C(F)(F)F)O[C@@H]2O[C@@]3(C)CC[C@H]4[C@H](C)CC[C@@H]1[C@@]24OO3`, the GI50 (in the experiment with DLD-1; in experiment [4]; in the experiment on HeLa; in the experiment on SiHa; in the experiment on A 172; in the experiment on B16) was 40 nM throughout.

Consider `C.C[C@H]1[C@@H](CC(=O)O[C@@H]2C[C@@H](OC(=O)C[C@H]3O[C@@H]4O[C@@]5(C)CC[C@H]6[C@H](C)CC[C@@H]([C@H]3C)[C@@]46OO5)[C@H](C)O[C@H]2O[C@H](C)CCCCC(=O)O)O[C@@H]2O[C@@]3(C)CC[C@H]4[C@H](C)CC[C@@H]1[C@@]24OO3`, for which the IC50 in the experiment on MDA-MB-231 [3], in the experiment on MCF7 and in the experiment on A549 was 5500 nM in each case.

For `Cc1ccccc1NS(=O)(=O)/C=C/c1ccc(OCc2ccc(C(=O)NCCO[C@@H]3O[C@@H]4O[C@@]5(C)CC[C@H]6[C@H](C)CC[C@@H]([C@H]3C)[C@@]46OO5)cc2)cc1`, the IC50 in the experiment on HT-29 and with MDA-MB-231 [5] was 90 nM in each case.

Take `Cc1c(C)c2ccc(OCCn3cc(CO[C@H]4O[C@@H]5O[C@@]6(C)CC[C@H]7[C@H](C)CC[C@@H]([C@H]4C)[C@@]57OO6)nn3)cc2oc1=O`: the IC50 with HCT-116 [2], with MDA-MB-231 [3] and in the experiment with HT-29 was 430 nM throughout.

Consider `C[C@H]1[C@H](OCCNC(=O)c2ccc(COc3ccc(/C=C/S(=O)(=O)Nc4ccccc4)cc3)cc2)O[C@@H]2O[C@@]3(C)CC[C@H]4[C@H](C)CC[C@@H]1[C@@]24OO3`, for which the IC50 in the experiment on HT-29 and with MDA-MB-231 [5] was 90 nM in each case.

`CCOC(=O)c1cc2ccc(OCCn3cc(CO[C@H]4O[C@@H]5O[C@@]6(C)CC[C@H]7[C@H](C)CC[C@@H]([C@H]4C)[C@@]57OO6)nn3)cc2oc1=O`: the IC50 in the experiment on MDA-MB-231 [3] and in the experiment on HT-29 was 430 nM each time.

Consider `C[C@H]1[C@@H](OCc2cn(CCOc3ccc4c(C(F)(F)F)cc(=O)oc4c3)nn2)O[C@@H]2O[C@@]3(C)CC[C@H]4[C@H](C)CC[C@@H]1[C@@]24OO3`, for which the IC50 in the experiment with HCT-116 [2], in the experiment on MDA-MB-231 [3] and in the experiment on HT-29 was 430 nM each time.

Turning to `C[C@H]1[C@H](OCCNC(=O)c2ccc(COc3ccc(/C=C/S(=O)(=O)Nc4ccc(OC(F)(F)F)cc4)cc3)cc2)O[C@@H]2O[C@@]3(C)CC[C@H]4[C@H](C)CC[C@@H]1[C@@]24OO3`, the half-inhibitory concentration (IC50) (in the experiment on HT-29; with MDA-MB-231 [5]; in experiment [6]) was 90 nM in each case.

In the case of `C[C@H]1[C@@H](CC(=O)O[C@@H]2C[C@@H](OC(=O)C[C@H]3O[C@@H]4O[C@@]5(C)CC[C@H]6[C@H](C)CC[C@@H]([C@H]3C)[C@@]46OO5)[C@H](C)O[C@H]2O[C@H](C)CCCCC2OCOO2)O[C@@H]2O[C@@]3(C)CC[C@H]4[C@H](C)CC[C@@H]1[C@@]24OO3` (stereo partly drawn), the IC50 in the experiment on MDA-MB-231 [3], with MCF7 and in the experiment with A549 was 5500 nM throughout.

In the case of `C[C@H]1[C@H](OCCNC(=O)c2ccc(COc3ccc(/C=C/S(=O)(=O)Nc4ccccc4Cl)cc3)cc2)O[C@@H]2O[C@@]3(C)CC[C@H]4[C@H](C)CC[C@@H]1[C@@]24OO3`, the IC50 in the experiment on HT-29, in the experiment on A549 and with MDA-MB-231 [5] was 90 nM throughout.

As for `C[C@H]1[C@H](n2nncc2-c2cc(F)cc(F)c2)O[C@@H]2O[C@@]3(C)CC[C@H]4[C@H](C)CC[C@@H]1[C@@]24OO3`, the concentration for 50% growth inhibition (GI50) (in the experiment with DLD-1; in [4]; in the experiment on HeLa; with SiHa; in the experiment on A 172; in the experiment on B16) was 40 nM in each case.

As for `CCOC(=O)c1cc2ccc(OCCCn3cc(CO[C@H]4O[C@@H]5O[C@@]6(C)CC[C@H]7[C@H](C)CC[C@@H]([C@H]4C)[C@@]57OO6)nn3)cc2oc1=O`, the half-inhibitory concentration (IC50) in the experiment on MDA-MB-231 [3] and in the experiment with HT-29 was 430 nM in each case.

`Cc1c(Cl)c(=O)oc2cc(OCCCn3cc(CO[C@H]4O[C@@H]5O[C@@]6(C)CC[C@H]7[C@H](C)CC[C@@H]([C@H]4C)[C@@]57OO6)nn3)ccc12`: the IC50 in the experiment with MDA-MB-231 [3] and in the experiment with HT-29 was 430 nM each time.

Consider `Cc1cc(=O)oc2cc(OCCn3cc(CO[C@H]4O[C@@H]5O[C@@]6(C)CC[C@H]7[C@H](C)CC[C@@H]([C@H]4C)[C@@]57OO6)nn3)ccc12`, for which the IC50 in the experiment with HCT-116 [2], with MDA-MB-231 [3] and in the experiment with HT-29 was 430 nM in each case.

In the case of `Cc1cc(=O)oc2cc(OCCCn3cc(CO[C@H]4O[C@@H]5O[C@@]6(C)CC[C@H]7[C@H](C)CC[C@@H]([C@H]4C)[C@@]57OO6)nn3)ccc12`, the IC50 in the experiment on MDA-MB-231 [3] and with HT-29 was 430 nM in each case.

As to `Cc1c(C)c2ccc(OCCCn3cc(CO[C@H]4O[C@@H]5O[C@@]6(C)CC[C@H]7[C@H](C)CC[C@@H]([C@H]4C)[C@@]57OO6)nn3)cc2oc1=O`, the IC50 with MDA-MB-231 [3] and with HT-29 was 430 nM each time.

As to `C[C@H]1[C@H](OCCNC(=O)c2ccc(COc3ccc(/C=C/S(=O)(=O)Nc4c(Cl)cccc4Cl)cc3)cc2)O[C@@H]2O[C@@]3(C)CC[C@H]4[C@H](C)CC[C@@H]1[C@@]24OO3`, the IC50 in the experiment on HT-29, in the experiment on A549 and with MDA-MB-231 [5] was 90 nM throughout.

On to `CC1=C(CCCCO[C@H]2O[C@@H]3O[C@@]4(C)CC[C@H]5[C@H](C)CC[C@@H]([C@H]2C)[C@@]35OO4)C(=O)C(C(C)C)=CC1=O`, for which the 50% inhibitory concentration (IC50) in the experiment on HCT-116 [1] and in the experiment with PC-3 was greater than 100000 nM each time.

`CCCCCc1ccc(-c2cnnn2[C@@H]2O[C@@H]3O[C@@]4(C)CC[C@H]5[C@H](C)CC[C@@H]([C@H]2C)[C@@]35OO4)cc1`: the GI50 (in the experiment on DLD-1; in experiment [4]; in the experiment on HeLa; in the experiment on SiHa; in the experiment on A 172; with B16) was 40 nM throughout.

`C[C@H]1[C@@H](OCc2cn(CCCOc3ccc4c(C(F)(F)F)cc(=O)oc4c3)nn2)O[C@@H]2O[C@@]3(C)CC[C@H]4[C@H](C)CC[C@@H]1[C@@]24OO3`: the IC50 with HCT-116 [2], with MDA-MB-231 [3] and in the experiment with HT-29 was 430 nM in each case.

For `COc1ccc(-c2cnnn2[C@@H]2O[C@@H]3O[C@@]4(C)CC[C@H]5[C@H](C)CC[C@@H]([C@H]2C)[C@@]35OO4)cc1`, the GI50 (in the experiment on DLD-1; in [4]; in the experiment on HeLa; with SiHa; in the experiment on A 172; in the experiment on B16) was 40 nM in each case.

`COc1cc([C@@H]2c3cc4c(cc3[C@@H](O[C@@H]3O[C@@H]5CO[C@@H](C)O[C@H]5[C@H](O)[C@H]3O)[C@H]3COC(=O)[C@H]23)OCO4)cc(OC)c1O` [ETOPOSIDE] gave a half-maximal inhibitory concentration (IC50) with MCF7 of 830 nM.

As to `CC1=CC(=O)C(C(C)C)=CC1=O` [THYMOQUINONE], the half-maximal inhibitory concentration (IC50) in the experiment on HCT-116 [1] and in the experiment on PC-3 was 50100 nM throughout.
